One data set relates to female rats. Kind of data set: estrus suppression assay (duration of suppression of vaginal cornification after one subcutaneous injection). The class given is in vivo, rats of the Sprague-Dawley strain. To be noted: for effect of formulation on results: aqueous microcrystalline suspension of particle size 3 to 10µ (50% cumulative oversize, Coulter); for duration of action in words: cyclic esters of the series of Table 1 and Fig. 1; for durations of suppression: aqueous microcrystalline suspension, subcutaneous; for suppression of estrus compared with DMPA at 16 mg/rat: ester at 8 mg/rat, aqueous microcrystalline suspension (Figure 1). The protocol:
These were subjected to a biological screening programme designed to uncover new and effective sustained- release injectable contraceptives, the compounds being tested as injectable oily solutions or aqueous suspensions. The initial test was to determine the duration of suppression of estrus in female rats, with DMPA and norethisterone enanthate being used as comparison-standards. The most promising compounds were then tested in primates.
The bioassay used to determine the duration of action of the contraceptive compositions involved measuring the suppression of estrus in female rats. The compositions were used at four dosage levels, i.e. 2, 4, 8 and 16 mg/rat.
The long-acting properties of each formulation were determined in estrus suppression assay employing virgin, mature (180-200 g) cycling rats of the Sprague-Dawley strain purchased from Charles River Laboratories, USA. Upon receipt the animals were smeared daily for cyclicity and only those animals showing two consecutive normal cycles were used. Each animal was injected subcutaneously with 0.8 ml of the test preparation on the same day regardless of the stage of the cycle. Each compound was initially tested on ten rats. A series of initial tests with injections of 16 mg/animal were followed by studies at dose levels of 8, 4 and 2 mg/animal where necessary. An aqueous microcrystalline suspension of medroxyprogesterone acetate was used as standard. Daily smears were taken starting on the day after injection and continued until such time that cornification of vaginal epithelium was observed and cycling was re-established. Duration of cornification suppression is expressed as the total number of days minus two. The appearance of cornification was not always followed by the return of normal estrus cycles.

Data set [1] can be described thus: pharmacokinetics in the monkey (circulating levo norgestrel after injection). To be noted: monkey Macaca mulata.
[2] abbreviates: 8 mg/rat, majority of experiments terminated at 91 days post injection.

Turning to `C#C[C@]1(OC(=O)C2CCCC2)CC[C@H]2[C@@H]3CCC4=CC(=NO)CC[C@@H]4[C@H]3CC[C@@]21CC` [levo-norgestrel cyclopentylcarboxylate 3-oxime], the “effect of formulation on results” value in the data set with female rats is “better results”.

Consider `C#C[C@]1(OC(=O)C2CCCC2)CC[C@H]2[C@@H]3CCC4=CC(=O)CC[C@@H]4[C@H]3CC[C@@]21CC` [cyclopentylcarboxylate, Levo-norgestrel 17β-cyclopentyl carboxylate, reference compound], for which the effectiveness in words entry with female rats (16 mg dose) is given as “relatively ineffective”. In addition, the “duration of action in words” value in the data set with female rats is reported as “short acting”.

`C#C[C@]1(OC(=O)C2CC2)CC[C@H]2[C@@H]3CCC4=CC(=O)CC[C@@H]4[C@H]3CC[C@@]21CC` [levo-norgestrel cyclopropylcarboxylate]: the values for the durations of suppression in the data set on female rats (4 mg/rat) and in the data set with female rats (setting [2]) were 55.6 days and 74.0 days, respectively. Further, in the data set with female rats, the “duration of action in words” value is recorded as “long-acting”. In addition, the “suppression of estrus compared with DMPA at 16 mg/rat” value in the data set on female rats is “better suppression than DMPA at a dosage of 16 mg/rat”.

Consider `C#C[C@]1(OC(=O)CCC)CC[C@H]2[C@@H]3CCC4=CC(=O)CC[C@@H]4[C@H]3CC[C@@]21CC` [levo-norgestrel butanoate], for which the durations of suppression is 34.4 days in the data set on female rats (2 mg/rat), 65.1 days in the data set on female rats (4 mg/rat) and below 91 days in the data set with female rats (setting [2]). In the data set with female rats, the “suppression of estrus compared with DMPA at 16 mg/rat” value was “better suppression than DMPA at a dosage of 16 mg/rat”.

In the case of `CC(=O)O[C@]1(C(C)=O)CC[C@H]2[C@@H]3C[C@H](C)C4=CC(=O)CC[C@]4(C)[C@H]3CC[C@@]21C` [DMPA, medroxyprogesterone acetate, reference compound], the durations of suppression was 20.9 days in the data set with female rats (2 mg/rat), 28.2 days with female rats (4 mg/rat), 55.5 days with female rats (setting [2]) and 60.0 days in the data set on female rats (16 mg/rat). Further, the average suppression duration in the data set on female rats (microcrystalline suspension, rat, dose not given) was 63.7 days.

Turning to `C#C[C@]1(OC(=O)C2CCC2)CC[C@H]2[C@@H]3CCC4=CC(=O)CC[C@@H]4[C@H]3CC[C@@]21CC` [levo-norgestrel cyclobutylcarboxylate], the durations of suppression in the data set with female rats (2 mg/rat) is reported as 31.9 days; with female rats (4 mg/rat) it was 55.7 days; with female rats (setting [2]) it was 89.2 days; with female rats (16 mg/rat), above 91 days. Further, in the data set with female rats (Figure II: aqueous microcrystalline suspension 3 to 10µ versus solution in sesame oil or in ethyl oleate, groups of ten rats), the “effect of formulation on return to estrus” value is listed as “longer term effect of the ester when micro-dispersed in aqueous medium”. Also, the “duration of action in words” value with female rats is “long-acting”. Moreover, the “suppression of estrus compared with DMPA at 16 mg/rat” value with female rats (listed as cyclobutyl carboxylate) is given as “better suppression than DMPA at a dosage of 16 mg/rat”; in the data set on female rats (listed as cyclobutylcarboxylate) it was “the same inhibition as DMPA at 16 mg”. Besides, the “activity relative to the aqueous suspension” value in the data set on female rats (microcrystalline suspension in ethyl oleate (Table 11)) was “approximately 40%”. Moreover, in the data set with female rats (solution in a 50:50 mixture of ethyl oleate and benzyl benzoate (BB), compared with the suspensions), the activity by formulation entry was “Further reduction in activity”. Also, the “time during which measurable levels of levo norgestrel are still present in the circulation after injection” value in data set [1] was above 100 days.

In the case of “norethisterone enanthate [reference compound]”, in the data set on female rats (oily solution, rat, dose not given), the average duration is on record as 23.1 days.

As for `C#C[C@]1(OC(=O)C2CCCCC2)CC[C@H]2[C@@H]3CCC4=CC(=NO)CC[C@@H]4[C@H]3CC[C@@]21CC` [levo-norgestrel cyclohexylcarboxylate 3-oxime], the “effect of formulation on results” value in the data set with female rats is given as “better results”.

The record behind these values is EP0129947A2, “Contraceptive compositions based on esters of levo-norgestrel” (priority 1983, dated 1985).
